Test results: PubChem BioAssay AID2060609 (Molecular Pharmacology Branch, DTP, NCI, 2025)
pIC50: −log10 of the molar value. Values joined by “and” are separate entries in the source; they are usually repeats but may differ in a detail not shown here. Identical values can stand only once.

Tested on: 855422-203-R-J1-PDC complex spheroids, viability
Assay: Anticancer human tumor 855422-203-R-J1-PDC patient-derived bladder carcinoma cell line growth inhibition [CLK]
Details: for viability, T/C: stronger effect = lower value
Summary of the method: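 Multi-cell-type spheroids combined patient-derived tumor cells with HUVEC endothelial cells and human mesenchymal stem cells. Paired agents were dosed in half-log steps down from about clinical Cmax, or from 10 microM where Cmax was unknown.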

[1] = curve of first compound, second compound 0.0316 µM
[2] = curve of first compound, second compound 0.1 µM
[3] = curve of first compound, second compound 0.316 µM
[4] = curve of first compound, second compound 1 µM
[5] = curve of first compound, second compound 3.16 µM
[6] = curve of first compound, second compound 10 µM
[7] = second compound 0.0316 µM, first compound 0.0316 µM
[8] = second compound 0.0316 µM, first compound 0.1 µM
[9] = second compound 0.0316 µM, first compound 0.316 µM
[10] = second compound 0.0316 µM, first compound 1 µM
[11] = second compound 0.0316 µM, first compound 3.16 µM
[12] = second compound 0.0316 µM, first compound 10 µM
[13] = second compound 0.1 µM, first compound 0.0316 µM
[14] = second compound 0.1 µM, first compound 0.1 µM
[15] = second compound 0.1 µM, first compound 0.316 µM
[16] = second compound 0.1 µM, first compound 1 µM
[17] = second compound 0.1 µM, first compound 3.16 µM
[18] = second compound 0.1 µM, first compound 10 µM
[19] = second compound 0.316 µM, first compound 0.0316 µM
[20] = second compound 0.316 µM, first compound 0.1 µM
[21] = second compound 0.316 µM, first compound 0.316 µM
[22] = second compound 0.316 µM, first compound 1 µM
[23] = second compound 0.316 µM, first compound 3.16 µM
[24] = second compound 0.316 µM, first compound 10 µM
[25] = second compound 1 µM, first compound 0.0316 µM
[26] = second compound 1 µM, first compound 0.1 µM
[27] = second compound 1 µM, first compound 0.316 µM
[28] = second compound 1 µM, first compound 1 µM
[29] = second compound 1 µM, first compound 3.16 µM
[30] = second compound 1 µM, first compound 10 µM
[31] = second compound 3.16 µM, first compound 0.0316 µM
[32] = second compound 3.16 µM, first compound 0.1 µM
[33] = second compound 3.16 µM, first compound 0.316 µM
[34] = second compound 3.16 µM, first compound 1 µM
[35] = second compound 3.16 µM, first compound 3.16 µM
[36] = second compound 3.16 µM, first compound 10 µM
[37] = second compound 10 µM, first compound 0.0316 µM
[38] = second compound 10 µM, first compound 0.1 µM
[39] = second compound 10 µM, first compound 0.316 µM
[40] = second compound 10 µM, first compound 1 µM
[41] = second compound 10 µM, first compound 3.16 µM
[42] = second compound 10 µM, first compound 10 µM
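Note: spheroids exposed to drugs for seven days before readout.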
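Throughout, for viability, T/C: 100% = DMSO vehicle control wells.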

With `O=C(c1cc(Cc2n[nH]c(=O)c3ccccc23)ccc1F)N1CCN(C(=O)C2CC2)CC1` + CNC(=O)c1ccc(Nc2nc(OC3CCCC3)c3c(-c4ccc5nc(C)oc5c4)c[nH]c3n2)c(OC)c1 as the compound, how does the pIC50 [1] read?
The pIC50 was under 5.00.

And the pIC50 [2]?
The pIC50 was 5.32.

And the pIC50 [3]?
Its pIC50 is over 7.50.

And the pIC50 [4]?
Its pIC50 is over 7.50.

And the pIC50 [5]?
Its pIC50 is over 7.50.

And the pIC50 [6]?
The pIC50 was over 7.50.

What about the viability, T/C [7] of the same compound?
The viability, T/C was 117%.

What about the viability, T/C [8] of the same compound?
Its viability, T/C is 100%.

What about the viability, T/C [9] of the same compound?
The viability, T/C was 111%.

What about the viability, T/C [10] of the same compound?
The viability, T/C was 98.1%.

And the viability, T/C [11]?
The viability, T/C was 112%.

And the viability, T/C [12]?
Its viability, T/C is 82.5%.

What about the viability, T/C [13] of the same compound?
The viability, T/C was 58.6%.

What about the viability, T/C [14] of the same compound?
Its viability, T/C is 69.4%.

What about the viability, T/C [15] of the same compound?
Its viability, T/C is 63.6%.

And the viability, T/C [16]?
The viability, T/C was 47.4%.

And the viability, T/C [17]?
The viability, T/C was 57.2%.

And the viability, T/C [18]?
Its viability, T/C is 45.1%.

And the viability, T/C [19]?
Its viability, T/C is 20.3%.

And the viability, T/C [20]?
The viability, T/C was 21.5%.

And the viability, T/C [21]?
Its viability, T/C is 21.1%.

What about the viability, T/C [22] of the same compound?
Its viability, T/C is 23.7%.

And the viability, T/C [23]?
Its viability, T/C is 21.9%.

And the viability, T/C [24]?
Its viability, T/C is 23.8%.

What about the viability, T/C [25] of the same compound?
Its viability, T/C is 24.4%.

What about the viability, T/C [26] of the same compound?
Its viability, T/C is 21.6%.

What about the viability, T/C [27] of the same compound?
Its viability, T/C is 21.1%.

And the viability, T/C [28]?
Its viability, T/C is 28.1%.

What about the viability, T/C [29] of the same compound?
Its viability, T/C is 22.1%.

What about the viability, T/C [30] of the same compound?
Its viability, T/C is 18.5%.

And the viability, T/C [31]?
Its viability, T/C is 23.3%.

And the viability, T/C [32]?
The viability, T/C was 22.3%.

And the viability, T/C [33]?
The viability, T/C was 21.6%.

What about the viability, T/C [34] of the same compound?
The viability, T/C was 19.9%.

And the viability, T/C [35]?
Its viability, T/C is 21.3%.

What about the viability, T/C [36] of the same compound?
The viability, T/C was 23.4%.

What about the viability, T/C [37] of the same compound?
Its viability, T/C is 18.5%.

What about the viability, T/C [38] of the same compound?
The viability, T/C was 18%.

What about the viability, T/C [39] of the same compound?
Its viability, T/C is 17.9%.

What about the viability, T/C [40] of the same compound?
Its viability, T/C is 20%.

What about the viability, T/C [41] of the same compound?
The viability, T/C was 19.9%.

What about the viability, T/C [42] of the same compound?
The viability, T/C was 19.5%.

What does the source list for `C=CC(=O)N1CCN(c2nc(=O)n(-c3c(C)ccnc3C(C)C)c3nc(-c4c(O)cccc4F)c(F)cc23)C(C)C1` (configuration not stated) + CN1CCN(c2cc(C(=O)Nc3cc4cc(-c5cnn(C)c5)ccc4cn3)ccn2)CC1?
pIC50 [1]: < 5.00; pIC50 [2]: < 5.00; pIC50 [3]: > 7.50; pIC50 [4]: > 7.50; pIC50 [5]: > 7.50; pIC50 [6]: > 7.50; viability, T/C [7]: 99%; viability, T/C [8]: 110%; viability, T/C [9]: 134%; viability, T/C [10]: 138%; viability, T/C [11]: 169%; viability, T/C [12]: 119%; viability, T/C [13]: 85.5%; viability, T/C [14]: 92.3%; viability, T/C [15]: 94.7%; viability, T/C [16]: 116%; viability, T/C [17]: 113%; viability, T/C [18]: 82.1%; viability, T/C [19]: 12.1%; viability, T/C [20]: 18.2%; viability, T/C [21]: 17.9%; viability, T/C [22]: 17.6%; viability, T/C [23]: 17.6%; viability, T/C [24]: 7.91%; viability, T/C [25]: 0.24%; viability, T/C [26]: 0.27%; viability, T/C [27]: 0.3%; viability, T/C [28]: 0.42%; viability, T/C [29]: 0.52%; viability, T/C [30]: 2.45%; viability, T/C [31]: 0.88%; viability, T/C [32]: 0.76%; viability, T/C [33]: 2.22%; viability, T/C [34]: 1.37%; viability, T/C [35]: 1.55%; viability, T/C [36]: 1.14%; viability, T/C [37]: 0.53%; viability, T/C [38]: 0.49%; viability, T/C [39]: 0.4%; viability, T/C [40]: 0.89%; viability, T/C [41]: 0.88%; viability, T/C [42]: 1.04%

`CN1CCN(c2cc(C(=O)Nc3cc4cc(-c5cnn(C)c5)ccc4cn3)ccn2)CC1` was tested. Which viability, T/C (compound 0.1 µM) did it give?
Its viability, T/C is 94% [middle of 12 runs].

What about the viability, T/C (compound 0.316 µM) of the same compound?
Its viability, T/C is 9.83% [middle of 12 runs].

What about the viability, T/C (compound 1 µM) of the same compound?
The viability, T/C was 0.34% [middle of 11 runs].

And the viability, T/C (compound 3.16 µM)?
Its viability, T/C is 0.57% [middle of 11 runs].

What about the viability, T/C (compound 10 µM) of the same compound?
The viability, T/C was 0.34% [middle of 11 runs].

And the IC50 (compound alone, run of 07/31/2023)?
Its IC50 is 181 nM [middle of 9 runs].

What does the source list for `CCN1CCN(Cc2ccc(Nc3ncc(F)c(-c4cc(F)c5nc(C)n(C(C)C)c5c4)n3)nc2)CC1`?
viability, T/C (compound 0.00316 µM): 99.2% and 123%; viability, T/C (compound 0.01 µM): 85.2% and 96.2%; viability, T/C (compound 0.0316 µM): 79.4% and 92.5%; viability, T/C (compound 0.1 µM): 55.2% and 50%; viability, T/C (compound 0.316 µM): 50.4% and 57.6%; viability, T/C (compound 1 µM): 62.8% and 49.6%; pIC50 (curve of compound): < 6.00 and 6.11
